Assays:
[1] = system: RAW-Blue NF-kB/AP1 reporter cell line; assay: NF-κB and AP-1 activity assay (SEAP reporter, alkaline phosphatase activity); format: cell-based; settings: 25 μM, 24 h, compared to vehicle alone (FIG. 1)
Procedure: NF-κB and AP-1 Activity Assay. NF-kB and AP-1 activity was analyzed using the RAW-Blue NF-kB/AP1 reporter cell line (InvivoGen, San Diego, CA, USA), which contains a secreted embryonic alkaline phosphatase (SEAP) reporter construct, inducible by NF-κB and AP-1. Cells were cultured in RPMI 1640 medium supplemented with 10% FBS (Atlanta Biologicals, Flowery Branch, GA, USA) and 1% penicillin streptomycin (Life Technologies, Carlsbad, CA, USA), and stimulated with 25 μM PEN or DMSO (vehicle control) for 24 h. Culture supernatants were then collected and alkaline phosphatase activity was determined by incubating with the detection medium QUANTI-Blue (InvivoGen), and measuring at 655 nm using a SpectraMax spectrophotometer (Molecular Devices LLC, Sunnyvale CA, USA) and analyzed using Softmax Pro software (Molecular Devices LLC).

[2] = system: RAW macrophages (RAW 264.7); assay: Macrophage activation: surface expression of MHC-II, CD40, CD80, CD86 by flow cytometry; format: cell-based
Procedure: (§1) Macrophage Activation. RAW macrophages (RAW 264.7 (ATCC TIB-71), ATCC, Manassas, VA, USA) were plated at a concentration of 0.5×10^6 cells per well in 24-well plates, and treated with PEN (25 μM or 50 μM) or DMSO (vehicle control) for 24, 48 and 72 h. At the indicated times, cells were harvested for detection of MHC-II, CD40, CD80, CD86 surface expression by flow cytometry. RNA was also extracted from cells to determine gene expression of Tnfα, Il1b, Il6, IL10, Il15, Il18, Nos2, Arg1, and Chil3 by RT-PCR.
Flow Cytometry. Macrophages treated with PEN or the DMSO control were harvested, washed in PBS, blocked with normal mouse serum, and incubated with fluorochrome conjugated antibodies against the cell surface markers CD40, CD80, CD86 and MHC-II (Biolegend). Cells were acquired on a BD FACS Calibur (BD Biosciences) and analysis was performed using FlowJo software (Tree Star Inc, Ashland, OR, USA).

[3] = system: RAW macrophages (RAW 264.7); assay: Macrophage gene expression by RT-PCR; format: cell-based
Procedure: as §1
Real Time PCR. Total RNA was extracted from RAW macrophages using TRIzol reagent (Life Technologies). RNA was reverse-transcribed to cDNAs using an iScript reverse transcriptase kit (Bio-Rad, Hercules, CA, USA). Real-time PCR reactions using the IQ SYBR Green mix reagent were performed in a CFX96 RT-PCR cycler (Bio-Rad). Primer sequences for Tnfa, Illb, 116, IL10, 1115, 1118, Nos2, Argl and Chil3 were selected from the Primer Bank database (pga.mgh.harvard.edu/primerbank). Data were normalized to the reference gene β-actin and presented as fold induction over controls.

[4] = system: Bone marrow-derived dendritic cells (BMDCs); assay: Cytokine production (ELISA) by bone marrow-derived dendritic cells; format: cell-based, C57BL/6 mice
Procedure: Isolation of Mouse Bone Marrow-derived Dendritic Cells. Bone marrow-derived dendritic cells (BMDCs) were prepared by harvesting bone marrow cells from the femurs and tibias of C57BL/6 mice. Red blood cell lysis was performed in ACK lysis buffer, and subsequent cells were plated in RPMI medium supplemented with 10% FBS, 1% penicillin-streptomycin (Life Technologies) and 20 ng/mL GM-CSF (Peprotech, Rocky Hill, NJ, USA) at 5 million cells/dish for 6 to 8 days. Cells were harvested then stimulated with PEN (25 μM or 50 μM) or DMSO for 24 h, and culture supernatants were collected for detection of IL-12 and IL-10 cytokines by ELISA.
(§2) Cytokine ELISA. Purified anti-mouse antibodies against IFN-γ, IL-4, IL-10, IL-12 (Biolegend, San Diego, CA, USA) and IL-13 (eBiosciences, San Diego, CA, USA) were used to coat plates. Recombinant mouse IFN-γ, IL-4, IL-10, IL-12 and IL-13 (BD Biosciences, San Jose, CA, USA) were used as standards. Biotinylated anti-mouse antibodies for IFN-γ, IL-4, IL-10, IL-12 and IL-13 (Biolegend, San Diego, CA) were used as detection antibodies. AKP-streptavidin (BD Biosciences) and p-nitrophenylphosphate (PNPP, Thermo Fisher Scientific, Waltham, MA, USA) were used for detection. Absorbance was measured at 405 nm using a Spectramax microplate reader and data were analyzed by Softmax Pro software (Molecular Devices LLC, Sunnyvale, CA).

[5] = system: OT-II T cells co-cultured with BMDCs; assay: T cell co-culture with OVA-peptide-loaded BMDCs (CFSE proliferation, IFN-γ ELISA); format: cell-based, OT-II transgenic mice
Procedure: T Cell Co-culture Experiments 5×10^4 BMDCs were pulsed with 10 μg/mL OVA323-339 peptide (Anaspec, Fremont, CA, USA) for 2 h, then incubated with PEN (25 μM or 50 μM) or DMSO (vehicle control) for 24 h. CFSE labeled T cells isolated from spleens of OT-II transgenic mice were added to the wells at a 1:4 (BMDC:T cell) ratio and incubated for 72 h. Antigen-specific T cell proliferation was analyzed by flow cytometry of CFSE stained cells. Cell co-culture supernatants were collected for analysis of IFN-γ cytokine production by ELISA.
as §2

[6] = system: OVA-immunized mice; assay: Mouse immunization study: serum IgG1 and IgG2a antibody ELISA; format: in vivo, BALB/c mice; settings: 10 μg and 100 μg with 100 μg OVA s.c., compared to vehicle controls (FIG. 6)
Procedure: (§3) Mouse Immunization Studies. Six- to seven-week-old female BALB/c mice were purchased from Harlan Laboratories (Indianapolis, IN, USA). Mice were randomized into three groups, and immunized subcutaneously with 100 μg OVA (endotoxin free; BioVendor, Ashville, NC, USA) plus vehicle (Group 1), 100 μg OVA plus 10 μg PEN (Group 2), or 100 μg OVA plus 100 μg PEN (group 3, […]). Each group received respective boosting doses of treatment at weeks 2 and 4. Serum was collected from each mouse at every two weeks after initial immunization for detection of IgG1 and IgG2A antibodies by ELISA. Mice were euthanized at week 10 and spleens and lymph nodes were harvested for detection of cytokines IFN-γ, IL-4, IL-10 and IL-13 by ELISA after re-stimulation with 1 mg/mL OVA antigen for 72 h.
Antibody ELISA. Mice were bled at weeks 2, 4, 6, 8 and 10 after immunization and serum was collected from the blood samples. IgG1 and IgG2a antibody titers were determined by ELISA using HRP-conjugated antibodies (Biolegend) and TMB substrate (KPL, Inc., Gaithersburg, MD, USA). Absorbance was measured at 450 nm by Spectramax microplate reader and data were analyzed by Softmax Pro software (Molecular Devices LLC).

[7] = system: OVA-immunized mice; assay: Mouse immunization study: cytokines of spleen and lymph node cells after ex vivo OVA re-stimulation; format: in vivo, BALB/c mice
Procedure: as §3, §2

[8] = both concentrations (25 μM, 50 μM), 72 h

With C=C(CCC=C(C)C)[C@H]1CC[C@H]2[C@@H]3CCC4=CC(=O)CC[C@]4(C)[C@H]3CC[C@]12C [PEN, pentalinonsterol] the “alkaline phosphatase activity (NF-κB/AP-1 SEAP reporter)” value [1] was “significantly increased”, the “expression of CD40” value ([2]; 25 μM and 50 μM, after 72 h (FIGS. 2A, 2E)) was “significantly enhanced” and the “expression of MHC-II” value ([2]; 25 μM and 50 μM, at 48 h and 72 h (FIGS. 2B, 2F)) was “significantly enhanced”. The “expression of CD80” value ([2]; 50 μM, 48 h) was “increased”, the “expression of CD86” value ([2]; 50 μM, 48 h) was “increased” and the “expression of CD80” value [2, 8] was “increased”. The “expression of CD86” value [2, 8] was “increased”, the “transcript levels of Arg1” value [3] was “increased” and the IL-15 gene transcripts ([3]; 25 μM, after 24 h (FIG. 3E)) was “increased”. For the same compound, the IL-18 gene transcripts ([3]; 25 μM, after 24 h (FIG. 3F)) was “increased”, the Il1b gene expression ([3]; 24 and 48 h, not statistically significant (FIG. 3B)) was “increased trend” and the “mRNA levels of Tnfα” value ([3]; 48 h (FIG. 3A)) was “increases”. The “mRNA levels of Il6” value ([3]; 48 h (FIG. 3C)) was “increases”, the “gene transcript levels of Nos2” value ([3]; after 48 h (FIG. 3D)) was “significantly increased” and the “transcript levels of Chil3” value ([3]; at 24 h and 48 h) was “significantly reduced”. The “transcript levels of IL-10” value ([3]; at 48 h) was “significantly reduced”, the IL-10 production ([4]; 50 μM, 24 h (FIG. 4B)) was “slight increase” and the “production of IL-12” value ([4]; 24 h (FIG. 4A)) was “significantly induces”. For the same compound, the T cell proliferation ([5]; 72 h co-culture, PEN-treated vs DMSO-treated BMDCs (FIG. 4C)) was “higher”, the “production of IFN-γ by T cells” value ([5]; 72 h co-culture, PEN-treated vs DMSO-treated BMDCs (FIG. 4D)) was “significantly increased” and the “T cell responses (proliferation and IFN-γ), 50 μM compared to 25 μM” value ([5]; BMDCs treated with 50 μM vs 25 μM) was “greater”. For the same compound, the IgG1 antibody titers [6] was “significantly increased”, the IgG2a antibody titers [6] was “significantly increased” and the “levels of IL-4” value ([7]; culture supernatants of lymph node and splenic cells (FIGS. 7B, 7F)) was “increased”. The “levels of IL-13” value ([7]; culture supernatants of lymph node and splenic cells (FIGS. 7D, 7H)) was “increased”, the “levels of IL-10” value ([7]; culture supernatants of lymph nodes and spleens, PEN vs vehicle control (FIGS. 7C, 7G)) was “generally comparable” and the “levels of IFN-γ” value ([7]; lymph node cells and splenocytes, OVA re-stimulation (FIGS. 7A, 7E)) was “significantly increased”.
